Key:
AML cell lines = test: Short-term drug sensitivity assay (GI50), selinexor plus background drug; type: cell-based; conditions: fixed-concentration background drug; for sensitization to selinexor (relative selinexor GI50), PI3K isoform-specific inhibitor background: panel of AML cell lines; for sensitization to selinexor (relative selinexor GI50), AKT or MEK/ERK inhibitor background: panel of eight AML cell lines, 72 hours
Method: Short-term cell viability assays were conducted. Briefly, AML cells were seeded at a density of 7,500 cells/well, treated with vehicle (DMSO) or a 10-fold serial dilution of selinexor (individually or combination with fixed-concentration background drug) and assessed for viability after 72-hours using Cell Titer Glo (Promega). The relative cell viability was determined by normalizing the raw luminescence values for each treatment condition to either the DMSO-treated well (selinexor individually) or the background drug only well (selinexor combinations). GI50 values approximate the concentration of selinexor required to inhibit growth of cells by 50%. Values were interpolated from dose-response curves plotted using GraphPad/Prism 8 software.

AKT [1] = test: Western immunoblot of AKT phosphorylation in AML cell lines; type: cell-based
Method: (§1) Protein lysates were prepared with 1×CST Lysis Buffer (CST #9803) supplemented with 1× cOmplete protease inhibitor cocktail (Roche #04693124001) and 1× PhosSTOP phosphatase inhibitor (Roche #04906837001). Crude lysates were rotated for 15 minutes with lysis buffer, cleared by centrifugation at 13,000 rpm for 10 minutes at 4° C. and normalized by total protein content using standard Bradford analysis. Membranes were probed with primary antibodies β-actin (13E5) (CST #4970 diluted 1:5000 in 5% BSA), p-AKT T308 (244F9) (CST #4056 diluted 1:1000 in 5% BSA), p-AKT S473 (D9E) (CST #4060 diluted 1:1000 in 5% BSA), T-AKT (C67E7) (CST #4691 diluted 1:3000 in 5% BSA), p-GSK3B S9 (D85E12) (CST #5558 diluted 1:1000 in 5% BSA), p-BAD S136 (D25H8) (CST #4366 diluted 1:1000 in 5% BSA), CRM1 (C-1) (sc #74454 diluted 1:100 in 5% BSA), cleaved-PARP (D64E10) (CST #5625 diluted 1:1000 in 5% BSA), cleaved-Caspase3 D175 (CST #9661 diluted 1:500 in 5% BSA), p110-g (D55D5) (CST #5405 diluted 1:1000 in 5% BSA), p110α (C73F8) (CST #4249 diluted 1:1000 in 5% BSA), p110β (C33D4) (CST #3011 diluted 1:1000 in 5% BSA), p1108 (D1Q7R) (CST #34050 diluted 1:1000 in 5% BSA) or p101 (D32A5) (CST #5569 diluted 1:1000 in 5% BSA) overnight (16 hours). Following incubation with HRP-conjugated secondary antibody, blots were developed with SuperSignal West Pico PLUS Chemiluminescent Substrate (ThermoFisher) or ECL Western Blotting Substrate (ThermoFisher).
To validate selinexor's ability to activate PI3K/AKT signaling, each of five AML cell lines was treated with selinexor for 24 hours before performing western blot analysis. […] Additional AKT-dependent phosphorylation marks on PRAS40, FOXO3a, and TSC2 were also assessed in OCI-AML2 cells and found to be increased. This phosphorylation pattern was indicative of activated AKT signaling. To characterize the kinetics of selinexor-induced AKT activation, AML cells were treated with selinexor and collected samples at interval time points up to 48 hours. Across multiple cell lines, activation of AKT signaling was observed starting at 8-24 hours (FIG. 2B). […] The delays between treatment and AKT activation, observed both in vivo and in vitro, were not inconsistent with the presumption that selinexor primarily acts through transcriptional mechanisms. Finally, to assess the exclusivity of these findings for selinexor, cells were treated with a panel of eight additional anti-leukemic drugs for 24 hours.

RAS = test: Ras-GTP immunoprecipitation (RAF1-RBD pulldown); type: cell-based
Description: Active GTP bound Ras was pulled down and detected using the Active Ras Pull-Down and Detection Kit (Thermo Scientific, #16117) according to manufacturer's instruction. At least 10×10^6 cells were used in pull-down and lysates were normalized to ensure equal protein input across DMSO and selinexor-treated samples within each cell line.

OCI-AML2 cells [2] = test: Reverse phase protein array (RPPA) analysis; type: cell-based
Method: OCI-AML2 cells were treated with DMSO or selinexor for 3, 24 and 48-hours at which point 3×10^6 cells were pelleted and frozen at -80° C. RPPA analysis was performed as previously described. All samples were conducted in biological triplicate and normalized to DMSO control at each respective timepoint. Next, it was sought to identify the signaling nodes activated by selinexor treatment. To do this, a reverse phase protein array (RPPA) was used to analyze AML cells treated with DMSO or selinexor for 48 hours, using a dose of selinexor sufficient to provide an on-target effect but not high enough to impose a meaningful selective pressure. The RPPA platform, which provides quantitative measurements of 160 epitopes and phospho-epitopes representing cellular growth, proliferation, and signaling pathways, identified many drug-induced effects, several of which supported previously described mechanisms of selinexor activity. […] (FIG. 1C). […] In addition to corroborating selinexor's established effects, the RPPA data was able to identify selinexor-induced downregulations of phospho-S6 at Ser235/236 and Ser240/244, phospho-elF4G at […], and phospho-4E-BP1 at […], which collectively pointed to suppression of mTORC1 signaling (FIG. 1C). This idea has been raised in multiple myeloma and was further supported here by the reciprocal upregulation of DEPTOR, a negative regulator of mTOR.

MAPK signaling = test: Western blot of MAPK signaling in AML cell lines; type: cell-based; conditions: multiple AML cell lines
Method: as §1, with “Following incubation with HRP-conjugated secondary antibody, blots were developed with SuperSignal West Pico PLUS Chemiluminescent Substrate (ThermoFisher) or ECL Western Blotting Substrate (ThermoFisher).” left out

[3] = type: in vivo; conditions: selinexor 15 mg/kg in mice
Method: Animals transplanted with these AML cells were treated with the combination of selinexor (15 mg/kg, oral gavage) and ipatasertib (65 mg/kg, oral gavage) or either drug alone every other day for ten days.

P2RY2 = test: qRT-PCR of P2RY2 expression; type: cell-based
Method: RNA was isolated from whole cells with the RNEasy Mini kit (Qiagen). cDNA was reverse transcribed from total RNA samples using iScript cDNA Synthesis Kit with 1 μg of RNA template. qRT-PCR was carried out using iQ SYBR Green Supermix and a CFX384 Touch Real-Time PCR Detection System, according to manufacturer instructions. Fold expression was determined by normalizing cycle threshold (Cq) values to ACTB reference gene and normalizing samples to control sample, in accordance with the ΔΔCq method.

AKT [4] = test: AKT activation in vivo, syngeneic MLL-AF9-driven model of AML; conditions: MLL-AF9 cells from treated mice
OCI-AML2 cells [5] = test: Pooled CRISPR selinexor sensitizer screen, selinexor dose (approx. GI50); type: cell-based; conditions: Homo sapiens, 336 h, two-week screen period, approximate, read-out: GI50 concentration
Method: Virus production, titering and transduction was performed as previously described. In short, viral titer (Infectious Units (IFU)/mL) was found by transducing OCI-AML2 cells with a 1:3 dilution series of library virus, selecting cells with puromycin for 2 days and determining multiplicity of infection (MOI) from % of cells infected. Viral titer is equal to (#cells seeded*MOI*Virus dilution factor)/(Volume of virus added to each well). […] For the selinexor sensitizer screen, selinexor was dosed at 100 nM, a concentration that yielded sufficient selective pressure without excessive cell death (approximately the GI50 concentration) over the two-week screen period. […] Genomic DNA was extracted using the DNeasy Blood & Tissue Kit (Qiagen) from 25×10^6 cell samples taken prior to dividing cells into treatment conditions (time zero) and after completion of the two-week screen. Amplification of the sgRNA barcodes and indexing of each sample was performed via 2-step PCR as previously described.

extracellular ATP = test: Extracellular ATP release in presence of ARL67156; type: cell-based; conditions: 36 hours, with ectonucleotidase inhibitor ARL67156, normalized for cell quantity
Method: To assess the role of P2RY2 in selinexor-induced AKT activation, the ability of P2RY2 to activate AKT in the AML cell lines was first tested by culturing cells in the presence of exogenous ATP or UTP. Cells cultured with exogenous ATP activated AKT signaling while cells cultured with exogenous UTP only minimally activated AKT, if at all, prompting the possibility that selinexor may activate AKT signaling through induced release of extracellular ATP. This was tested by treating cells with selinexor versus vehicle in the presence of the ectonucleotidase inhibitor ARL67156 and quantifying the amount of extracellular ATP released after 36 hours.

## C[C@H](NC(=O)c1c(N)nn2cccnc12)c1cc2cccc(C#Cc3cnn(C)c3)c2c(=O)n1-c1ccccc1 [IPI-549]
AML cell lines
  sensitization to selinexor (relative selinexor GI50), PI3K isoform-specific inhibitor background: capable of sensitizing each AML cell line to selinexor

## Cc1ccc2c(c1)C=Cc1cc(C)ccc1C2c1cn(Cc2ccc(C(=O)Nc3nn[nH]n3)o2)c(=O)[nH]c1=S [AR-C118925XX]
AKT [1]; OCI-AML2 cells expressing D835Y-mutant FLT3
  p-AKT T308 in FLT3-mutant expressing cells: reduced but did not completely ablate the elevated p-AKT T308 signal
AKT [1]; OCI-AML2 cells expressing GFP, western blot
  p-AKT T308, baseline: suppressed p-AKT T308
RAS; OCI-AML2, AR-C added to selinexor
  effect on selinexor-induced GTP-RAS: able to reverse the increased GTP-RAS

## NC1(c2ccc(-c3nc4ccn5c(=O)[nH]nc5c4cc3-c3ccccc3)cc2)CCC1 [MK-2206]
AML cell lines
  sensitization to selinexor (relative selinexor GI50), AKT or MEK/ERK inhibitor background: capable of sensitizing all eight of the AML cell lines tested to selinexor

## CC(C)NC[C@@H](C(=O)N1CCN(c2ncnc3c2[C@H](C)C[C@H]3O)CC1)c1ccc(Cl)cc1 [ipatasertib]
AML cell lines
  sensitization to selinexor (relative selinexor GI50), AKT or MEK/ERK inhibitor background: capable of sensitizing all eight of the AML cell lines tested to selinexor

## CCn1c(-c2nonc2N)nc2c(C#CC(C)(C)O)ncc(OC[C@H]3CCCNC3)c21 [GSK690693]
AML cell lines
  sensitization to selinexor (relative selinexor GI50), AKT or MEK/ERK inhibitor background: capable of sensitizing all eight of the AML cell lines tested to selinexor

## Cc1nc(NC(=O)N2CCC[C@H]2C(N)=O)sc1-c1ccnc(C(C)(C)C(F)(F)F)c1 [BYL-719]
AML cell lines
  sensitization to selinexor (relative selinexor GI50), PI3K isoform-specific inhibitor background: unable to sensitize any of the cell lines to selinexor

## Cc1cc(C(C)Nc2ccccc2)c2nc(N3CCOCC3)cc(=O)n2c1 (stereo not shown) [TGX-221]
AML cell lines
  sensitization to selinexor (relative selinexor GI50), PI3K isoform-specific inhibitor background: unable to sensitize any of the cell lines to selinexor

## NC(=O)/C(=C/n1cnc(-c2cc(C(F)(F)F)cc(C(F)(F)F)c2)n1)c1cncnc1 [eltanexor]
AKT [1]; western blot of eltanexor-treated samples
  AKT phosphorylation at Thr308 and Ser473 (second-generation CRM1 inhibitor): produced consistent phosphorylation of AKT at Thr308 and Ser473

## O=C(/C=C\n1cnc(-c2cc(C(F)(F)F)cc(C(F)(F)F)c2)n1)NNc1cnccn1 [selinexor]
OCI-AML2 cells [2]; OCI-AML2 cells, 48 hours selinexor vs DMSO
  RPPA expression of phospho-AKT (Thr308 and Ser473): two of the strongest upregulations identified by RPPA were reserved for AKT
OCI-AML2 cells [2]; selinexor- versus vehicle-treated cells
  RPPA phospho-ERK at Thr202/Tyr204: an increase in phopho-ERK at Thr202/Tyr204
AKT [1]; five AML cell lines, selinexor 24 hours, western blot
  AKT phosphorylation at Thr308 and Ser473: increased AKT phosphorylation at both Thr308 and Ser473
AKT [1]; multiple AML cell lines, time points up to 48 hours
  start of activation of AKT signaling: 8 to 24 h
MAPK signaling
  MAPK signaling: activated MAPK signaling in a P2RY2 dependent manner
RAS; five AML cell lines, selinexor- versus vehicle-treated
  GTP-RAS: increased GTP-RAS
[3]
  on-target response: induction of p53
P2RY2; each of five AML cell lines, vs DMSO control
  P2RY2 expression: increased P2RY2 expression
P2RY2; qRT-PCR, up to 48 hours
  time course of P2RY2 transcriptional upregulation: transcriptional upregulation of P2RY2 starting at 12 and increasing through 48 hours
AKT [4]
  start of AKT activation after treatment: 6 to 8 h
OCI-AML2 cells [5]
  GI50: ~100 nM
Extracellular ATP
  extracellular ATP released: no increase in extracellular ATP

Source: US20240216376A1, “COMBINATION THERAPIES FOR THE TREATMENT OF CANCER” (Duke University, priority 2021, published 2024)
